Literature values in patent US11975103B2, “Compositions of midodrine and methods of using the same” (XENAMED CORP., priority 2016, dated 2024).

How the values were obtained:
[1] = tested on: patients with neurogenic orthostatic hypotension
[2] = after oral administration of an immediate release tablet

solubility in water | half-life [2] | time to peak plasma levels [2] | Structure (SMILES) | standing systolic blood pressure [1]
soluble in water |  |  | COc1ccc(OC)c(C(O)CNC(=O)CN)c1.Cl (racemic) [Midodrine hydrochloride, (±)-2-amino-N-[2-(2,5-dimethoxyphenyl)-2-hydroxyethyl]acetamide monohydrochloride] | significantly increases
 | approximately 25 minutes | about 30 minutes | COc1ccc(OC)c(C(O)CNC(=O)CN)c1 (stereo not shown) [midodrine] | 
